# Where two headings read alike, the source gives them in different places.
# Legend:
# Format in all cases: cell-based
# [1] = test system: colon cancer cell line HT29; test: Growth profile / viability of HT29 colon cancer cells, XTT test; details: Homo sapiens, HT-29, 96 h, Control DMSO = 100%, read-out: percentage of viable cells, HT29
# How it was run: (§1)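 Cells were seeded and grown untreated overnight, then exposed to compounds at a final 5 μM (0.4% v/v DMSO). Untreated and 0.4% DMSO-only cells were the controls. Percent viable cells was measured by XTT 96 h after compound addition.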
# [2] = test system: colon cancer cell line RKO; test: Growth profile / viability of RKO colon cancer cells, XTT test; details: 96 h, Control DMSO = 100%, read-out: percentage of viable cells, RKO
# How it was run: as §1
# [3] = Viability of FS non malignant fibroblastic cells, XTT test; details: FS cells (non-malignant fibroblastic cell line), Control DMSO = 100%, read-out: percentage of viable cells, FS
# How it was run: as §1
# [4] = test system: colon cancer cell line HCT 116; test: Growth profile / viability of HCT116 colon cancer cells, XTT test; details: Homo sapiens, HCT-116, 96 h, Control DMSO = 100%, read-out: percentage of viable cells, HCT116
# How it was run: as §1
SMILES,viability at 5 µM ([1]; first HT29 column) [%],viability at 5 µM ([1]; second HT29 column) [%],viability at 5 µM ([2]; first RKO column) [%],viability at 5 µM ([2]; second RKO column) [%],"viability at 96 h, 5 µM ([3]; first FS column) [%]","viability at 96 h, 5 µM ([3]; second FS column) [%]",viability at 5 µM ([4]; first HCT116 column) [%],viability at 5 µM ([4]; second HCT116 column) [%]
"CN1CCN(C(=O)C2CCN(c3nn4cc(-c5ccc(N6CCN(C)CC6)cc5)nc4s3)CC2)CC1 [Compound Z522-0160, 2-{4-[(4-methylpiperazin-1-yl)carbonyl]-piperidin-1-yl}-6-[4-(4-methyl-piperazin-1-yl)-phenyl]imidazo[2,1-b][1,3,4]-thiadiazole]",117,91,92,109,101,104,105,108
"CC(C)N1CCN(c2ccc(-c3cn4nc(N5CCC(C(=O)N6CCN(C)CC6)CC5)sc4n3)cc2)CC1 [Compound Z522-0174, 6-[4-(4-isopropyl-piperazin-1-yl)-phenyl]-2-{4-[(4-methylpiperazin-1-yl)carbonyl]-piperidin-1-yl}-imidazo[2,1-b]-[1,3,4]thiadiazole]",77,78,93,97,117,113,105,124
"CC(C)c1ccc(-c2cn3nc(N4CCC(C(=O)N5CCN(CCN(C)C)CC5)CC4)sc3n2)cc1 [Compound Z522-0229, {2-[4-({1-[6-(4-isopropylphenyl)imidazo[2,1-b][1,3,4]thiadiazol-2-yl]piperidin-4-yl}carbonyl)piperazin-1-yl]ethyl} dimethylamine]",74,77,45,47,79,101,87,99
"O=C(C1CCN(c2nn3cc(-c4ccc(Cl)cc4)nc3s2)CC1)N1CCCN(c2ncccn2)CC1 [Compound Z522-0219, 6-(4-chlorophenyl)-2-{4-[(4-pyrimidin-2-yl-1,4-diazepan-1-yl)carbonyl]piperidin-1-yl}imidazo[2,1-b][1,3,4]thiadiazole]",91,95,48,45,89,94,75,67
"CN1CCN(C(=O)C2CCN(c3nn4cc(-c5ccc(N(C)CCO)cc5)nc4s3)CC2)CC1 [Compound Z522-0177, 2-{methyl[4-(2-{4-[(4-methyl-piperazin-1-yl)-carbonyl]piperidin-1-yl}imidazo-[2,1-b][1,3,4]-thiadiazol-6-yl)-phenyl]amino} ethanol]",116,121,97,96,120,116,107,104
"CC1CCCN(c2ccc(-c3cn4nc(N5CCC(C(=O)N6CCN(C)CC6)CC5)sc4n3)cc2)C1 (stereo not drawn) [Compound Z522-0166, 2-{4-[(4-methylpiperazin-1-yl)carbonyl]-piperidin-1-yl}-6-[4-(3-methyl-piperidin-1-yl)-phenyl]imidazo[2,1-b][1,3,4]-thiadiazole]",4,4,6,6,101,92,30,23
"Cc1c(-c2ccc(N(C)CCO)cc2)nc2sc(N3CCC(C(=O)N4CCN(C)CC4)CC3)nn12 [Compound Z522-0197, 2-{methyl[4-(5-methyl-2-{4-[(4-methylpiperazin-1-yl)carbonyl]-piperidin-1-yl}-imidazo[2,1-b]-[1,3,4]thiadiazol-6-yl)phenyl]-amino}ethanol]",102,110,111,117,113,104,95,108
"O=C(C1CCN(c2nn3cc(-c4ccc(Cl)cc4)nc3s2)CC1)N1CCCC(CN2CCOCC2)C1 (stereo not drawn) [Compound Z522-0214, 6-(4-chlorophenyl)-2-(4-{[3-(morpholin-4-ylmethyl)piperidin-1-yl]carbonyl}piperidin-1-yl)imidazo[2,1-b][1,3,4]thiadiazole]",53,57,24,23,104,90,70,71
"CC(C)c1ccc(-c2cn3nc(N4CCC(C(=O)N5CCN(c6ccccn6)CC5)CC4)sc3n2)cc1 [Compound Z522-0223, 6-(4-isopropyl-phenyl)-2-{4-[(4-pyridin-2-ylpiperazin-1-yl)carbonyl]piperidin-1-yl}imidazo[2,1-b][1,3,4]thiadiazole]",83,89,64,81,87,92,75,80
